Experimental data from PubChem BioAssay AID2060488 (Molecular Pharmacology Branch, DTP, NCI, 2025).

Test system: 966289-007-R4-J1-PDC complex spheroid viability
Experiment: Anticancer human tumor 966289-007-R4-J1-PDC patient-derived pancreatic adenocarcinoma cell line growth inhibition [GQUAD]
Settings: for viability, T/C: stronger effect = lower value
Excerpt: DNA G-quadruplex Stabilizer Agents in Combinations in Complex Spheroids
A high-throughput screen of multi-cell type tumor spheroids was designed to identify active combinations of DNA G-quadruplex stabilizer agents and targeted small molecules. Complex spheroids include a stromal component modeled by human endothelial cells (HUVEC) and fibroblasts modeled by human mesenchymal stem cells (MSCs). The concentration ranges selected for each drug and investigational agent were based upon clinically achievable concentrations if the clinical Cmax of the agent was known.
Compounds. The drugs and investigational agents: pidnarulex (CX-5461; NSC782164), APTO-253 (NSC789042), BRACO-19 (NSC847499), peposertib (NSC802822), ceralasertib (NSC780249), elimusertib (NSC800525), camonsertib (NSC841442), AZD-1390 (NSC803789), olaparib (NSC753686), talazoparib (NSC767125), ART-558 (NSC835418), sotorasib (NSC818433), MRTX-1133 (NSC836407), SN-38 (NSC673596), topotecan (NSC609699), etoposide (NSC141540), doxorubicin (NSC123127), gemcitabine (NSC613327), 5-fluorouracil (NSC19893), paclitaxel (NSC125973), vemurafenib (NSC761431), panobinostat (NSC761190), R-306465 (JNJ-16241199; NSC773264), adavosertib (NSC754352), TP-3654 (NSC805149), carboplatin (NSC241240), KSQ-4279 (NSC840948), and staurosporine (NSC755774) were obtained from the National Cancer Institute (NCI) Developmental Therapeutics Program Chemical Repository (34). The FDA-approved anticancer drug set is available from the NCI Developmental Therapeutics Program. […] The stock solutions were prepared in dimethyl sulfoxide (DMSO, Sigma-Aldrich, St. Louis, MO, cat. D2650) at 800-fold the tested concentration and stored at -70 degrees C prior to their use. All drugs and investigational agents were tested over a range starting from a high concentration at or near the clinical Cmax and decreasing in half-log increments. If the clinical Cmax for an agent had not been determined, the highest concentration tested was 10 microM.
2.3 Cell Culture. All cells were maintained in an incubator at 37 degrees C and 5% CO2 with 95% humidity. The PDC lines were cultured according to standard operating procedures established by the NCI PDMR. All PDCs were thawed and cultured in Matrigel-coated flasks prepared with a working solution of 1X Ham's F-12 nutrient mix, without supplementation (Invitrogen, cat. 11765054), 100 U/mL penicillin-streptomycin (Invitrogen, cat. 15140122), and 2.5% Matrigel (Corning Inc., cat. 354248) for the first three passages. The 857933-349-R-J2-PDC line was cultured in 6C/Colon 1B media, which includes advanced DMEM/F-12 (Thermo Fisher Scientific, cat. 12634028), 10 mM HEPES (Thermo Fisher Scientific, cat. 15630080), 1X GlutaMAX supplement (Thermo Fisher Scientific, cat. 35050061), 0.1 mg/mL primocin (InvivoGen, cat. ant-pm-2), 10% defined fetal bovine serum, heat inactivated (HyClone Laboratories Inc., cat. SH30070.03HI), 50% L-WRN conditioned media (ATCC, cat. CRL-3276), 1.25 mM N-Acetyl-L-cysteine (Sigma-Aldrich, cat. A9165), 10 mM nicotinamide (Sigma-Aldrich, cat. N0636), 1X B-27 supplement (Thermo Fisher Scientific, cat. 17504044), 1X N-2 supplement (Thermo Fisher Scientific, cat. 17502048), 10 microM Y-27632 dihydrochloride (Tocris Bioscience, cat. 1254), and 50 ng/mL human EGF recombinant protein (Thermo Fisher Scientific, cat. PHG0311). The 485176-168-R4-J1-PDC line was cultured in Panc media, which includes all 6C/Colon 1B media components plus 100 ng/mL human FGF-10 (Thermo Fisher Scientific, cat. 100-26), 500 nM SB-431542 (Selleckchem, cat. S1067), and gastrin (Tocris, cat. 3006).
[…]

[1] = curve of first compound, second compound 0.0316 µM
[2] = curve of first compound, second compound 0.1 µM
[3] = curve of first compound, second compound 0.316 µM
[4] = curve of first compound, second compound 1 µM
[5] = curve of first compound, second compound 3.16 µM
[6] = curve of first compound, second compound 10 µM
[7] = second compound 0.0316 µM, first compound 0.0316 µM
[8] = second compound 0.0316 µM, first compound 0.1 µM
[9] = second compound 0.0316 µM, first compound 0.316 µM
[10] = second compound 0.0316 µM, first compound 1 µM
[11] = second compound 0.0316 µM, first compound 3.16 µM
[12] = second compound 0.0316 µM, first compound 10 µM
[13] = second compound 0.1 µM, first compound 0.0316 µM
[14] = second compound 0.1 µM, first compound 0.1 µM
[15] = second compound 0.1 µM, first compound 0.316 µM
[16] = second compound 0.1 µM, first compound 1 µM
[17] = second compound 0.1 µM, first compound 3.16 µM
[18] = second compound 0.1 µM, first compound 10 µM
[19] = second compound 0.316 µM, first compound 0.0316 µM
[20] = second compound 0.316 µM, first compound 0.1 µM
[21] = second compound 0.316 µM, first compound 0.316 µM
[22] = second compound 0.316 µM, first compound 1 µM
[23] = second compound 0.316 µM, first compound 3.16 µM
[24] = second compound 0.316 µM, first compound 10 µM
[25] = second compound 1 µM, first compound 0.0316 µM
[26] = second compound 1 µM, first compound 0.1 µM
[27] = second compound 1 µM, first compound 0.316 µM
[28] = second compound 1 µM, first compound 1 µM
[29] = second compound 1 µM, first compound 3.16 µM
[30] = second compound 1 µM, first compound 10 µM
[31] = second compound 3.16 µM, first compound 0.0316 µM
[32] = second compound 3.16 µM, first compound 0.1 µM
[33] = second compound 3.16 µM, first compound 0.316 µM
[34] = second compound 3.16 µM, first compound 1 µM
[35] = second compound 3.16 µM, first compound 3.16 µM
[36] = second compound 3.16 µM, first compound 10 µM
[37] = second compound 10 µM, first compound 0.0316 µM
[38] = second compound 10 µM, first compound 0.1 µM
[39] = second compound 10 µM, first compound 0.316 µM
[40] = second compound 10 µM, first compound 1 µM
[41] = second compound 10 µM, first compound 3.16 µM
[42] = second compound 10 µM, first compound 10 µM
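Further: spheroids exposed to the agents for seven days before readout.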
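Wherever viability, T/C is given: percent viability relative to DMSO vehicle control wells taken as 100%.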

`C=CC(=O)N1CCN(c2nc(=O)n(-c3c(C)ccnc3C(C)C)c3nc(-c4c(O)cccc4F)c(F)cc23)C(C)C1` (stereo unspecified) + Cc1cnc(CNC(=O)c2c(=O)c3ccc(N4CCCN(C)CC4)nc3n3c2sc2ccccc23)cn1 was tested, and the IC50 [1] was > 10000 nM, the IC50 [2] was < 31.6 nM and the IC50 [3] was < 31.6 nM. For the same molecule, the IC50 [4] was < 31.6 nM, the IC50 [5] was < 31.6 nM and the IC50 [6] was < 31.6 nM. The viability, T/C [7] was 109%, the viability, T/C [8] was 102% and the viability, T/C [9] was 112%. It also gave a viability, T/C [10] of 98%, a viability, T/C [11] of 103% and a viability, T/C [12] of 88.2%. The viability, T/C [13] was 31.1%, the viability, T/C [14] was 37.4% and the viability, T/C [15] was 37.1%. It also gave a viability, T/C [16] of 31.9%, a viability, T/C [17] of 37% and a viability, T/C [18] of 25.3%. The viability, T/C [19] was 11.3%, the viability, T/C [20] was 12.7% and the viability, T/C [21] was 11.5%. The viability, T/C [22] was 12.2%, the viability, T/C [23] was 13.4% and the viability, T/C [24] was 10.3%. It also gave a viability, T/C [25] of 7.08%, a viability, T/C [26] of 5.8% and a viability, T/C [27] of 5.81%. The viability, T/C [28] was 6.58%, the viability, T/C [29] was 9.48% and the viability, T/C [30] was 9.07%. For the same molecule, the viability, T/C [31] was 4.85%, the viability, T/C [32] was 4.57% and the viability, T/C [33] was 5.54%. The viability, T/C [34] was 5.93%, the viability, T/C [35] was 7.14% and the viability, T/C [36] was 8.52%. It also gave a viability, T/C [37] of 0.11%, a viability, T/C [38] of 0.14% and a viability, T/C [39] of 0.14%. The viability, T/C [40] was 0.16%, the viability, T/C [41] was 2.33% and the viability, T/C [42] was 0.13%.

In the case of `CN(C)c1ccc(Nc2c3ccc(NC(=O)CCN4CCCC4)cc3nc3cc(NC(=O)CCN4CCCC4)ccc23)cc1`, the viability, T/C (compound 0.0316 µM) is reported as 104% [middle of 12 runs], the viability, T/C (compound 0.1 µM) is reported as 107% [middle of 12 runs] and the viability, T/C (compound 0.316 µM) is reported as 108% [middle of 11 runs]. The viability, T/C (compound 1 µM) was 108% [middle of 12 runs], the viability, T/C (compound 3.16 µM) was 98.7% [middle of 12 runs] and the viability, T/C (compound 10 µM) was 99.8% [middle of 12 runs]. For the same molecule, the IC50 (compound alone, run of 03/26/2024) was > 10000 nM.

`CC1COCCN1c1cc(C2(O)CC3CCC(C2)O3)c2cnn(-c3ccn[nH]3)c2n1` (stereo unspecified) + Cc1[nH]c2ccc(F)cc2c1-c1nc2c3cccnc3c3ncccc3c2[nH]1 was tested, and the IC50 [1] was 117 nM, the IC50 [2] was 112 nM and the IC50 [3] was 134 nM. It also gave an IC50 [4] of 131 nM, an IC50 [5] of 60.9 nM and an IC50 [6] of 50.6 nM. The viability, T/C [7] was 112%, the viability, T/C [8] was 55.6% and the viability, T/C [9] was 13.9%. The viability, T/C [10] was 5.11%, the viability, T/C [11] was 4.75% and the viability, T/C [12] was 3.95%. For the same molecule, the viability, T/C [13] was 111%, the viability, T/C [14] was 53.8% and the viability, T/C [15] was 14%. It also gave a viability, T/C [16] of 5.55%, a viability, T/C [17] of 4.82% and a viability, T/C [18] of 4.44%. The viability, T/C [19] was 105%, the viability, T/C [20] was 63.2% and the viability, T/C [21] was 11.7%. For the same molecule, the viability, T/C [22] was 5.9%, the viability, T/C [23] was 4.9% and the viability, T/C [24] was 4.84%. The viability, T/C [25] was 98.5%, the viability, T/C [26] was 61.1% and the viability, T/C [27] was 14.2%. For the same molecule, the viability, T/C [28] was 5.99%, the viability, T/C [29] was 4.35% and the viability, T/C [30] was 4.34%. For the same molecule, the viability, T/C [31] was 81.8%, the viability, T/C [32] was 25.1% and the viability, T/C [33] was 11.7%. It also gave a viability, T/C [34] of 5.99%, a viability, T/C [35] of 6% and a viability, T/C [36] of 4.42%. It also gave a viability, T/C [37] of 71.7%, a viability, T/C [38] of 18.7% and a viability, T/C [39] of 6.61%. For the same molecule, the viability, T/C [40] was 5.67%, the viability, T/C [41] was 4.73% and the viability, T/C [42] was 4.11%.
